The target of series [1] is T1, PRMT5/MEP50-MTA protein complex (Homo sapiens, UniProt O14744).
T1 construct: purchased Viva Biotech
In words: Thermal shift assay: thermal stability (melting temperature) of PRMT5/MEP50-MTA protein complex. The note with it: final compound concentration 8 µM; 2 µM PRMT5/MEP50, 2 µM MTA; Tm minus Tm of DMSO vehicle control. The class given is binding. The text has this: Test Example 1: Determination of the ability of the compounds of the present invention to improve the thermal stability (melting temperature) of the PRMT5/MEP50-MTA protein complex.
1 Experimental objective: The objective of this test example is to determine the ability of the compound to improve the thermal stability of the PRMT5/MEP50-MTA protein complex, resulting in an increase in the protein melting temperature. 2 Experimental instruments: Quantitative PCR instrument (Quantstudio6 Flex) was purchased from Life Technologies; pipettes were purchased from Eppendorf or Rainin. 3 Experimental reagents and consumables: PRMT5/MEP50 protein was prepared by Viva Biotech; HEPES was purchased from Thermo Fisher Scientific (Cat. No. 15630080); DTT was purchased from Sigma (Cat. No. 43816-10ml); sodium chloride was purchased from Invitrogen (Cat. No. AM9760G); Protein Thermal Shift™ Dye Kit was purchased from Thermo Fisher Scientific (Cat. No. 4461146); methylthioadenosine (MTA) was purchased from Sigma (Cat. No. D5011). 4 Experimental method: In this experiment, the thermal shift method was used to measure the change in the melting temperature (Tm) of the PRMT5/MEP50-MTA protein complex before and after compound binding, thereby characterising the ability of the compound to improve the thermal stability of the PRMT5/MEP50-MTA protein complex. A solution containing 50 mM HEPES, 10 mM DTT, 2 µM MTA, SYPRO Orange and 250 mM NaCl was prepared as the experimental buffer. Human PRMT5/MEP50 protein was added to a final concentration of 2 µM, and the mixture was incubated at room temperature for 30 minutes. The above reaction mixture was aliquoted into 8-strip PCR tubes at 19.5 µL per tube. Then 0.5 µL of test compound or DMSO was added to each tube, providing a total reaction volume of 20 µL and a final compound concentration of 8 µM. 2.5% DMSO was set as the vehicle control. After incubation at room temperature for 10 minutes, the PCR tubes were placed in a PCR instrument, and the melt curve function was selected to measure the melting temperature of the PRMT5/MEP50-MTA protein complex in different treatment groups (heated from 25°C to 95°C, 0.03°C/s). 5 Experimental data processing method: The experimental data files from the PCR instrument were imported into the thermal shift software to obtain the melting temperature (Tm) for each treatment group.

For another series, the system named is HCT116 wild-type cells. Kind of series: Cell proliferation inhibition (CellTiter-Glo), HCT116 wild-type cells. Type of series: cell-based. The text has this:
(§1) Test Example 2: Determination of the inhibitory effect of the compounds of the present invention on the proliferation activity of HCT116 and MTAP Knockout HCT116 cells.
(§2) 1 Experimental objective: The objective of this test example is to determine the inhibitory effect of the compound on the proliferation activity of HCT116 wild-type and HCT116 MTAP knockout cells. 2 Experimental instruments: Centrifuge (Eppendorf 5810R); microplate reader (BioTek Synergy H1 or PerkinElmer Envision); pipette (Eppendorf or Rainin). 3 Experimental reagents: HCT116 and MTAP Knockout HCT116 cells were purchased from Nanjing Cobioer; Cell Titer-Glo was purchased from Promega (Cat. No. G7573); McCoy'5A was purchased from Gibco (Cat. No. 12330031); FBS was purchased from Gibco (Cat. No. 10091148); PBS was purchased from Gibco (Cat. No. 10010023); trypsin was purchased from Gibco (Cat. No. 25200056); cell culture plates were purchased from Corning (Cat. No. 3610). 4 Experimental method: HCT116 and MTAP Knockout HCT116 cells were cultured in McCoy'5A medium containing 10% FBS until an appropriate cell density was reached. The cells were then collected and adjusted to a suitable concentration using complete medium. The cell suspension was seeded into a 96-well plate at 90 µL per well and allowed to adhere overnight in a 37°C, 5% CO2 incubator. Compound solutions of various concentrations were prepared using DMSO and culture medium, with a vehicle control set. The compound solutions were added to the 96-well plate at 10 µL per well, and the plate was incubated in a 37°C, 5% CO2 incubator for an additional 72-240 hours. After incubation, CellTiter-Glo solution was added, and the mixture was mixed uniformly by shaking, followed by incubation in the dark for 10 to 30 minutes. Luminescence was measured using a Synergy H1 or Envision microplate reader. 5 Experimental data processing method: The inhibition rate was calculated using the luminescence signal values, and the concentrations along with the inhibition rates were subjected to non-linear regression curve fitting using Graphpad Prism software to obtain the IC50 values.
Background: ATP-based viability assays read luminescence as a measure of living cells.

Series [2] relates to MTAP Knockout HCT116 cells. In words: Cell proliferation inhibition (CellTiter-Glo), HCT116 MTAP knockout cells. The note with it: for Selectivity: HCT116 IC50 versus MTAP Knockout HCT116 IC50. The class given is cell-based.
Text: as §1, §2

A short description of series [3]: Pharmacokinetics in rats (plasma) after oral administration. Type of series: in vivo. The note with it: rat, in vivo, po, SD rats, p.o. 5 mg/kg.
Method: Test Example 4: Determination of the pharmacokinetics of the compounds of the present invention in rats (plasma) after oral administration.
1 Study objective: SD rats were used as test animals to study the pharmacokinetic behaviour of the following example compounds in rats (plasma) after oral administration at a dose of 5 mg/kg. 2 Test scheme • 2.1 Test drugs: Vehicle formula: 0.5% CMC-Na (1% Tween 80); the examples of the present invention, made in house. • 2.2 Test animals: 3 SD rats per group, male, purchased from Shanghai Bikai Keyi Biotechnology Co., Ltd., with animal license number (SCXK (Shanghai) 2018-0006, No.20180006037467). • 2.3 Administration: 3 SD rats per group, male, were fasted overnight and then respectively administered PO at a dose of 5 mg/kg and a volume of 10 mL/kg. • 2.4 Sample collection: 0.2 mL of blood was collected from the jugular vein of rats before administration and at 0, 0.25, 0.5, 1, 2, 4, 6, 8 and 24 h after administration, and placed in EDTA-K2test tubes, and the test tubes were centrifuged at 6,000 rpm at 4°C for 6 min to separate the plasma, which was stored at -80°C. The animals were fed 4 h after administration. • 2.5 Sample treatment • 1) 160 uL of acetonitrile was added to 40 uL of plasma sample for precipitation, and after mixing, the mixture was centrifuged at 3,500 × g for 5-20 minutes. • 2) 100 uL of the treated supernatant solution was taken for LC/MS/MS analysis to determine the concentration of the test compounds. • 2.6 Liquid phase analysis • Liquid phase conditions: Shimadzu LC-20AD pump;mass spectrometry conditions: AB Sciex API 4000 mass spectrometer • Chromatographic column: Phenomenex Gemiu 5 um C18 50 × 4.6 mm • Mobile phase: solution A: 0.1% formic acid in water, solution B: methanol • Flow rate: 1.0 mL/min, elution time: 0-4.0 min, with eluents as follows:
Experimental results and analysis: The main pharmacokinetic parameters were calculated using WinNonlin 8.2.
The mark [4] stands for this setting: Homo sapiens, HCT-116, HCT116 wild-type cells, proliferation inhibition, Cell Titer-Glo, read-out: HCT116 IC50.
Setting [5] is: Homo sapiens, HCT-116, MTAP Knockout HCT116 cells, proliferation inhibition, Cell Titer-Glo, read-out: MTAP Knockout HCT116 IC50.
Setting [6] is: Homo sapiens, HCT-116, read-out: HCT116 IC50.
Where [7] appears, read: Homo sapiens, HCT-116, read-out: MTAP Knockout HCT116 IC50.

Read-outs that look alike come from different tables or passages of the source.

T1 sequence (O14744 whole entry): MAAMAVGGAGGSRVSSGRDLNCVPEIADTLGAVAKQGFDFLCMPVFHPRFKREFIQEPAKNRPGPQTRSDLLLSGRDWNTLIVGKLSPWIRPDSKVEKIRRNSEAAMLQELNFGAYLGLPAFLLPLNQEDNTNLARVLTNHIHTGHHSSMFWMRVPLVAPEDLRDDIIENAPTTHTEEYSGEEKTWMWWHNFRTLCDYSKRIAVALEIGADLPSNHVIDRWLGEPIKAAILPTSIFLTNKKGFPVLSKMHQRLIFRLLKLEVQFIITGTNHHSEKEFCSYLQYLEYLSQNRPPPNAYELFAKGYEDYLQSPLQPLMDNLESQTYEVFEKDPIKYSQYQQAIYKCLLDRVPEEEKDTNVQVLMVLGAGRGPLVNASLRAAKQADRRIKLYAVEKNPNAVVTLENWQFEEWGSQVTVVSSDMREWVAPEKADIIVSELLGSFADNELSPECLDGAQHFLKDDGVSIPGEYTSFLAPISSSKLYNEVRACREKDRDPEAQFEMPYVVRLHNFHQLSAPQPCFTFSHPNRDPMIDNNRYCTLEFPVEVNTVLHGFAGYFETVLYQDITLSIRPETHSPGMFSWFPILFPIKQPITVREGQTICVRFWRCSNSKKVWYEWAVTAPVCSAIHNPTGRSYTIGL
T1 sequence (Q9BQA1 whole entry partner): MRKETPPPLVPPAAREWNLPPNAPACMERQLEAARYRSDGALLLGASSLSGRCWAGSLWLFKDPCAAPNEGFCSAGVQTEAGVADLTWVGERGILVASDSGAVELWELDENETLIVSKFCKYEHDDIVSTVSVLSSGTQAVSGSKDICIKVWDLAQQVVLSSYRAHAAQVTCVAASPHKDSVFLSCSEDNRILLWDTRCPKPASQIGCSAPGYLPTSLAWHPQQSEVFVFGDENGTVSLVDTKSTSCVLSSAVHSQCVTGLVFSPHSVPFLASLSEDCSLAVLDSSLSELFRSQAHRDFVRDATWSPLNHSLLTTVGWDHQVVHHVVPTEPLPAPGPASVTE

Consider `Nc1nc2cc3c(cc2n2cncc12)C(=O)N(C1COc2cc(C(F)(F)F)ccc21)CCC/C=C\3` (racemic) [Example 164, (Z)-4-Amino-12-(6-(trifluoromethyl)-2,3-dihydrobenzofuran-3-yl)-9,10,11,12-tetrahydro-13H-azo[4,3-g]imidazo[1,5-a]quinoxalin-13-one], for which the ΔTm at 8 µM in series [1] turned out to be 11.2 °C. For the same molecule, the IC50 in the series with HCT116 wild-type cells (setting [4]) turned out to be 6630 nM. In addition, in series [2], the Selectivity stood at 406. For the same molecule, the IC50 in series [2] (setting [5]) was 16 nM. Besides, in series [3], the AUC(0-inf) stood at 2520 ng·h/mL and the half-life was 4.7 h. Further, in series [3] (read-out: Cmax), the Cmax was found to be 183 ng/mL. Besides, the MRT inf in series [3] (read-out: MRT0-∞) was determined as 7.6 h. The time of peak concentration (Tmax) in series [3] (read-out: tmax) is 4 h.

`Nc1nc2cc3c(cc2c2c1COC2)C(=O)N(Cc1ccc(-c2c(F)cccc2F)cn1)CCCOC3` [Example 431, 4-Amino-12-(5-(2,6-difluorophenyl)pyridin-2-yl)methyl-3,7,9,10,11,12-hexahydrofuro[3,4-c][1,5]oxazolino[7,8-g]quinolin-13(1H)-one]: the ΔTm at 8 µM in series [1] turned out to be 12.3 °C. Besides, the IC50 with HCT116 wild-type cells (setting [6]) amounted to 200 nM; in series [2] (setting [7]), 3.3 nM. The Selectivity in series [2] was 61.

As to `CC1OCc2c1c(N)nc1cc3c(cc21)C(=O)N(Cc1ccc(-c2c(F)cccc2F)cn1)CCCNC3` (stereo not drawn) [Example 435, 4-Amino-12-((5-(2,6-difluorophenyl)pyridin-2-yl)methyl)-3-methyl-1,3,7,8,9,10,11,12-octahydro-13H-[1,5]diamine[7,8-g]furo[3,4-c]quinolin-13-one], the ΔTm at 8 µM in series [1] was found to be 12.8 °C. Also, the values for the IC50 (with HCT116 wild-type cells (setting [6]); in series [2] (setting [7])) were 78 nM and 1.9 nM, respectively. The Selectivity in series [2] came out at 41.

Turning to `Nc1nc2cc3c(cc2n2cncc12)C(=O)N(Cc1ccc(C24CC(C2)C4)cn1)CCCOC3` [Example 484, 4-Amino-12-((5-(bicyclo[1.1.1]pentan-1-yl)pyridin-2-yl)methyl)-9,10,11,12-tetrahydroimidazo[1,5-a][1,5]oxazolo[8,7-g]quinoxalin-13(7H)-one], in series [1], the ΔTm at 8 µM stood at 11.9 °C. Further, the IC50 came to 379 nM in the series with HCT116 wild-type cells (setting [4]) and 9.9 nM in series [2] (setting [5]). For the same molecule, in series [2], the Selectivity was determined as 38.

In the case of `Nc1nc2cc3c(cc2c2c1COC2)C(=O)N(Cc1ccc(C24CC(C2)C4)cn1)CCCOC3` [Example 510, 4-Amino-12-((5-(bicyclo[1.1.1]pentan-1-yl)pyridin-2-yl)methyl)-3,7,9,10,11,12-hexahydrofuro[3,4-c][1,5]oxazolo[7,8-g]quinolin-13(1H)-one], in series [1], the ΔTm at 8 µM was 11.3 °C. The IC50 was determined as 771 nM with HCT116 wild-type cells (setting [6]) and 12 nM in series [2] (setting [7]). Further, the Selectivity in series [2] was 66.

As for `C[C@H]1CCCN(Cc2ccc(C(F)(F)F)cn2)C(=O)c2cc3c(cc2C1)nc(N)c1cncn13` [Example 514-P2, (S)-4-amino-8-methyl-12-((5-(trifluoromethyl)pyridin-2-yl)methyl)-7,8,9,10,11,12-hexahydro-13H-azo[4,3-g]imidazo[1,5-a]quinoxalin-13-one], the ΔTm at 8 µM in series [1] is 11.6 °C. In addition, the IC50 worked out at 1000 nM in the series with HCT116 wild-type cells (setting [6]) and 14 nM in series [2] (setting [7]). Also, the Selectivity in series [2] turned out to be 71.

As for “(R, Z)-4-amino-12-(2-(trifluoromethyl)-5,8-dihydro-6H-pyrano[3,4-b]pyridin-5-yl)-9,10,11,12-tetrahydro-13H-aza[4,3-g]imidazo[1,5-a]quinoxalin-13-one [Example 158-P1]”, in series [1], the “ΔTm (°C)” value was determined as 12.03 °C. Further, the IC50 was 708 nM in the series with HCT116 wild-type cells (HCT116 wild-type cells, proliferation inhibition, Cell Titer-Glo, read-out: HCT116 IC50) and 8.7 nM in series [2] (MTAP Knockout HCT116 cells, proliferation inhibition, Cell Titer-Glo, read-out: MTAP Knockout HCT116 IC50). In addition, in series [2], the Selectivity is recorded as 81.

A word on the ΔTm: it is the change in melting temperature against a reference sample. As usually defined, the IC50 is the concentration needed to halve the response being measured. By AUC(0-inf) is commonly meant total exposure, with the tail of the curve extrapolated. Higher therefore signals more exposure. For orientation: half-life means the time in which the quantity being followed falls by half. As a reminder, the Cmax is the maximum level reached in the sampled fluid or tissue. As usually defined, the Tmax is the time at which the peak concentration occurs.

The record behind these values is EP4818176A1, “TETRACYCLIC DERIVATIVE INHIBITOR, AND PREPARATION METHOD AND USE THEREFOR” (Shanghai Hansoh Biomedical Co., Ltd., priority 2023, dated 2025).
